In brackets after ≈: the same amount, converted by molar mass. Like-named read-outs stand apart in the source and are kept apart here. One block for each molecule: values may come before it.
What was measured:
[1] = Solubility in phosphate buffer at pH 7.4; type: physicochemical
pKa determination = type: physicochemical
[2] = LogD7.4, octanol/water partition coefficient; type: physicochemical; conditions: for LogD7.4: aqueous phase at pH7.4; for logD: pH 7.4
[3] = tested on: forced expiratory volume in 1 second (FEV1); test: Clinical lung function; type: in vivo, human; conditions: once daily dosing; glycopyrronium 25 µg, indacaterol 300 µg, batefenterol 800 µg; COPD patients
guinea pig trachea = conditions: cited from earlier work
human bronchi = conditions: cited from earlier work
[4] = ref 8, 9; cited from earlier work
[5] = phosphate buffer, pH 7.4, aqueous buffer
[6] = pKa, second printed value (dibase)

solubility ([1]; phosphate buffer at pH 7.4): 650 µM (≈ 435 µg/mL)
pKa (pKa determination): 8.7
pKa (pKa determination; second printed value (dibase)): 7.6
LogD7.4 [2]: 2.1
SMILES: CC(C)c1ncc(C(=O)N2CCOC3(CCN(Cc4ccc(F)c(CCNC[C@H](O)c5ccc(O)c6[nH]c(=O)sc56)c4)CC3)C2)s1 [AZD2115]

SMILES: C[N+]1(C)CCC(OC(=O)C(O)(c2ccccc2)C2CCCC2)C1 (stereo not shown) [Glycopyrronium]
associated increase in FEV1, single to multiple dosing [3]: around 40 mL
In vitro guinea pig trachea pIC50 (guinea pig trachea; ref 25): 9.025
In vitro human bronchi pIC50 (human bronchi; ref 24): 8.4
In vitro human bronchi pIC50 (human bronchi; ref 25): 10.4

SMILES: CC(C)[N+]1(C)[C@@H]2CC[C@H]1C[C@@H](OC(=O)C(CO)c1ccccc1)C2 (stereo partly shown) [Ipratropium]
In vitro guinea pig trachea pIC50 (guinea pig trachea; ref 25): 8.625
In vitro human bronchi pIC50 (human bronchi; ref 25): 9.525

solubility [1, 5]: > 2900 µM
pKa (pKa determination; pKa): 9.2
SMILES: CC(C)(C)NCC(O)c1ccc(O)c(CO)c1 (stereo not shown) [Salbutamol]
In vitro guinea pig trachea pIC50 (guinea pig trachea; ref 19): 6.719
In vitro human bronchi pIC50 (human bronchi; ref 21): 6.4
In vitro human bronchi pIC50 (human bronchi; ref 22): 6.9

solubility [1, 5]: 6830 µM (≈ 1540 µg/mL)
pKa (pKa determination; pKa): 9.3
logD [2]: -1.5
SMILES: CC(C)(C)NCC(O)c1cc(O)cc(O)c1 (stereo not shown) [Terbutaline]

solubility [1, 5]: > 2500 µM
pKa (pKa determination; pKa): 8.4
pKa (pKa determination; [6]): 6.2
logD [2]: 0.9
SMILES: CNC(=O)c1cc(Cl)c(OC(C)(C)C(=O)O)cc1OC[C@@H](O)CN1CCC2(CC1)Cc1cc(Cl)ccc1O2 [AZD4818]

SMILES: COc1ccc(CC(C)NCC(O)c2ccc(O)c(NC=O)c2)cc1 (stereo not shown) [Formoterol]
In vitro guinea pig trachea pIC50 (guinea pig trachea; ref 19): 8.819
In vitro human bronchi pIC50 (human bronchi; ref 23): 8.8

solubility ([1]; phosphate buffer at pH 7.4): 2,510 µM
pKa (pKa determination): 9.5
pKa (pKa determination; second printed value (dibase)): 7.1
LogD7.4 [2]: 2.3
SMILES: CCN(CC)CCN(CCNCCc1ccc(O)c2[nH]c(=O)sc12)C(=O)CCOCCc1cccc2ccccc12 [AZD3199]
lung half lives [4]: in the order of days
In vitro guinea pig trachea pIC50 (guinea pig trachea; ref 19): 8.019

solubility [1, 5]: 28 µM (≈ 20.7 µg/mL)
pKa (pKa determination; pKa): 10
pKa (pKa determination; [6]): 7.3
logD [2]: 3.1
SMILES: COc1cc(NC(=O)CCN2CCC(OC(=O)Nc3ccccc3-c3ccccc3)CC2)c(Cl)cc1CNC[C@H](O)c1ccc(O)c2[nH]c(=O)ccc12 [Batefenterol, (R)‐1‐(3‐((2‐chloro‐4‐(((2‐hydroxy‐2‐(8‐hydroxy‐2‐oxo‐1,2‐dihydroquinolin‐5‐yl)ethyl)amino)methyl)‐5‐methoxyphenyl)amino)‐3‐oxopropyl)piperidin‐4‐yl [1,1'‐biphenyl]‐2‐ylcarbamate]
associated increase in FEV1, single to multiple dosing [3]: around 100 mL
lung half lives [4]: in the order of days
In vitro guinea pig trachea pIC50 (guinea pig trachea; ref 26): 8.026

solubility [1, 5]: > 380 µM
pKa (pKa determination; pKa): 9.1
logD [2]: 2.2
SMILES: OCc1cc(C(O)CNCCCCCCOCCCCc2ccccc2)ccc1O (stereo not shown) [Salmeterol]
In vitro human bronchi pIC50 (human bronchi; ref 21): 7.3
In vitro human bronchi pIC50 (human bronchi; ref 22): 8.1

solubility [1, 5]: 25 µM (≈ 9.81 µg/mL)
pKa (pKa determination; pKa): 8.3
logD [2]: 2.8
SMILES: CCc1cc2c(cc1CC)CC(NC[C@H](O)c1ccc(O)c3[nH]c(=O)ccc13)C2 [Indacaterol]
associated increase in FEV1, single to multiple dosing [3]: around 40 mL
In vitro guinea pig trachea pIC50 (guinea pig trachea; ref 19): 7.719
In vitro human bronchi pIC50 (human bronchi; ref 22): 6.6
In vitro human bronchi pIC50 (human bronchi; ref 24): 7.4

solubility [1, 5]: > 2800 µM
SMILES: C[N+]1(C)[C@@H]2C[C@@H](OC(=O)C(O)(c3cccs3)c3cccs3)C[C@H]1[C@@H]1O[C@@H]12 [Tiotropium]
In vitro guinea pig trachea pIC50 (guinea pig trachea; ref 25): 9.125
In vitro human bronchi pIC50 (human bronchi; ref 25): 9.525
